Measured values as given in the CheMixHub viscosity set.
± gives the uncertainty stated by the source.

Assay: xn = mol fraction of the nth substance listed

NCC(=O)NCC(=O)NCC(=O)O + O
viscosity [mPa·s]
Details	298.15 K	303.15 K	308.15 K	313.15 K	318.15 K
100 kPa, x1 = 0.0008998	0.9044 ± 0.008	0.8108 ± 0.0073	0.7322 ± 0.0067	0.6656 ± 0.0062	0.6079 ± 0.0057
100 kPa, x1 = 0.001798	0.9128 ± 0.0081	0.8191 ± 0.0073	0.7406 ± 0.0067	0.6738 ± 0.0062	0.6157 ± 0.0058
100 kPa, x1 = 0.002695	0.9213 ± 0.0081	0.8272 ± 0.0074	0.7481 ± 0.0068	0.6812 ± 0.0063	0.6229 ± 0.0058
100 kPa, x1 = 0.00359	0.9287 ± 0.0082	0.8347 ± 0.0075	0.7552 ± 0.0069	0.6885 ± 0.0063	0.6298 ± 0.0059
100 kPa, x1 = 0.004483	0.9364 ± 0.0083	0.8418 ± 0.0076	0.7623 ± 0.0069	0.6953 ± 0.0064	0.6366 ± 0.006
100 kPa, x1 = 0.005375	0.9426 ± 0.0084	0.8482 ± 0.0076	0.7691 ± 0.007	0.7018 ± 0.0065	0.6429 ± 0.006
100 kPa, x1 = 0.006266	0.95 ± 0.0085	0.8548 ± 0.0077	0.7757 ± 0.0071	0.7082 ± 0.0066	0.6492 ± 0.0061
100 kPa, x1 = 0.007154	0.9566 ± 0.0085	0.8615 ± 0.0078	0.7818 ± 0.0072	0.7147 ± 0.0067	0.6552 ± 0.0062
101 kPa, x1 = 0.000199	0.8947 ± 0.019	–	0.7233 ± 0.018	–	0.5994 ± 0.016
101 kPa, x1 = 0.000396	0.8988 ± 0.019	–	0.7269 ± 0.018	–	0.6027 ± 0.016
101 kPa, x1 = 0.0006084	0.9032 ± 0.02	–	0.7307 ± 0.018	–	0.6058 ± 0.016
101 kPa, x1 = 0.0007854	0.9075 ± 0.02	–	0.7343 ± 0.018	–	0.6087 ± 0.016
101 kPa, x1 = 0.001106	0.9149 ± 0.02	–	0.7403 ± 0.018	–	0.6138 ± 0.016
101 kPa, x1 = 0.001839	0.9325 ± 0.02	–	0.7547 ± 0.018	–	0.6255 ± 0.017
101 kPa, x1 = 0.002563	0.9511 ± 0.02	–	0.7694 ± 0.018	–	0.637 ± 0.017
101 kPa, x1 = 0.003356	0.9729 ± 0.02	–	0.7857 ± 0.018	–	0.6495 ± 0.017
101 kPa, x1 = 0.0046	1.01 ± 0.021	–	0.8123 ± 0.019	–	0.6694 ± 0.017
